Source: paper PMC6943709, “Synergistic Inhibition of Acetylcholinesterase by Alkaloids Derived from Stephaniae Tetrandrae Radix, Coptidis Rhizoma and Phellodendri Chinensis Cortex” (Molecules, 2019)
Where two headings read alike, the source gives them in different places.

Molecular target: T1, Acetylcholinesterase (AChE) (Mus musculus, UniProt P21836)
T1 construct: The assay medium consisted of brain lysate (5 mg/mL) containing different concentrations of testing drugs; from tissue; host or cells: mouse brain lysate
T1 sequence (P21836 32-614): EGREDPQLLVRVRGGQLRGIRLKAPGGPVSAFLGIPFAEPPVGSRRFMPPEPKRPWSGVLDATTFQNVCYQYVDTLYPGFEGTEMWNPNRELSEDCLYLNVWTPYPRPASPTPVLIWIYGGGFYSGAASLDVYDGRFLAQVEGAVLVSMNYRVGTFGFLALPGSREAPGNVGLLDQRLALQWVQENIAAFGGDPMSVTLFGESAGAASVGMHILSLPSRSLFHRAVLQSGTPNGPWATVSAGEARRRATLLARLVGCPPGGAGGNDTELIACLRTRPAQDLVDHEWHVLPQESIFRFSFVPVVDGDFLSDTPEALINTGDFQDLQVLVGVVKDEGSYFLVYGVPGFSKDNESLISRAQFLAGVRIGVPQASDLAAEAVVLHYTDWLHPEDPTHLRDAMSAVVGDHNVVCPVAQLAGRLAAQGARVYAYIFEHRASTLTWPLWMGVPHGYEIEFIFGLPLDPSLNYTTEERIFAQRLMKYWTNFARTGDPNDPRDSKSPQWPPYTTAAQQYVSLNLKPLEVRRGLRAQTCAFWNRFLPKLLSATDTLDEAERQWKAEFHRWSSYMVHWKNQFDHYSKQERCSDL
Assay: biochemical
Format: biochemical
Conditions: for AChE Inhibitory Activity: ranking by IC50, molar concentration (alkaloids)
Description: The combinations of fangchinoline–coptisine/berberine at concentration ratios of 1:5, 1:2, 1:1, and 2:1 were individually prepared by mixing appropriate volumes of fangchinoline and coptisine or berberine stock solutions. The solutions of fangchinoline–coptisine combinations (with initial system concentrations 4:20, 10:20, 20:20, and 20:10 μM, respectively) were diluted into seven concentrations by DMSO, respectively. The solutions of fangchinoline–berberine combinations (with initial system concentrations 2:10, 5:10, 10:10, and 20:10 μM, respectively) were diluted into seven concentrations by DMSO, respectively. The stocks of tetrandrine, epiberberine, and palmatine were taken appropriately and diluted into six concentrations (with initial system concentrations 30, 100, and 50 μM, respectively) by DMSO, respectively.
The mouse brain lysate (0.1 g/mL, containing 10 mM HEPES (pH 7.4), 1 mM EDTA, 1 mM EGTA, 150 mM NaCl, 0.5% triton X-100, 10 μg/mL leupeptin, 10 μg/mL aprotinin, 10 μg/mL pepstatin, and 50 μg/mL benzamidine HCL) was prepared. AChE enzymatic activity was assayed by 96-well microtiter plate with a final volume of 200 μL, according to the Ellman method. […] Briefly, the mixture of brain lysate containing the testing drugs, Na2HPO4 buffer, and iso-OMPA solution were incubated at 37 °C for 10 min, and then ATCh and DNTB solutions were added. The reaction solution was incubated at 37 °C for 30 min, and AChE activity was determined by measuring the absorbance at 405 nm. To eliminate the drug–solvent influence on AChE enzymatic activity, the concentration of DMSO was controlled at 0.5% in the 200 μL reaction volume. In order to correct for color interference at 405 nm, a background color contrast group without brain lysate and a drug color contrast group without brain lysate were set, respectively. […] Tacrine was used as a positive control. Protein concentrations were measured with a kit from Bio-Rad (Hercules, CA, USA).

SMILES | IC50 [µM] | AChE Inhibitory Activity | IC50 (single alkaloids, mouse brain lysate, Mean ± SEM, n = 3, read-out: IC50) [µM] | AChE inhibitory potency (mouse brain lysate, result in words)
COc1cc2c(cc1OC)-c1cc3ccc(OC)c(OC)c3c[n+]1CC2 [Palmatine] | 6.52 ± 0.84 | ++ (for molar concentration, “+++”, “++”, and “+” represent IC50 values of 1–5, 5–10 and 10–20 μM, respectively) |  | 
COc1cc2c(cc1OC)-c1cc3ccc4c(c3c[n+]1CC2)OCO4 [Epiberberine] |  | + (for molar concentration, “+++”, “++”, and “+” represent IC50 values of 1–5, 5–10 and 10–20 μM, respectively) | 18.7 ± 0.83 | 
c1c2c(cc3c1OCO3)-c1cc3ccc4c(c3c[n+]1CC2)OCO4 [Coptisine] | 13.5 ± 1.48 | + (for molar concentration, “+++”, “++”, and “+” represent IC50 values of 1–5, 5–10 and 10–20 μM, respectively) |  | 
COc1ccc2cc1Oc1ccc(cc1)C[C@H]1c3cc(c(OC)cc3CCN1C)Oc1c(OC)c(OC)cc3c1[C@H](C2)N(C)CC3 [Tetrandrine] |  | − |  | did not show AChE inhibitory potency
COc1ccc2cc1Oc1ccc(cc1)C[C@H]1c3cc(c(OC)cc3CCN1C)Oc1c(O)c(OC)cc3c1[C@H](C2)N(C)CC3 [Fangchinoline] | 2.17 ± 0.05 | +++ (for molar concentration, “+++”, “++”, and “+” represent IC50 values of 1–5, 5–10 and 10–20 μM, respectively) |  | 
COc1ccc2cc3[n+](cc2c1OC)CCc1cc2c(cc1-3)OCO2 [Berberine] | 2.33 ± 0.16 | +++ (for molar concentration, “+++”, “++”, and “+” represent IC50 values of 1–5, 5–10 and 10–20 μM, respectively) |  | 
